From patent publication US10144742B2 (Millennium Pharmaceuticals, Inc., priority 2014, dated 2018)
Like-named read-outs stand apart in the source and are kept apart here.

Experiments:
[1] = molecular target: hNAMPT protein (Homo sapiens (Human), UniProt P43490); experiment: NAMPT enzyme assay (TR-FRET/HTRF, BodiPY ligand, anti 6His-Tb); assay type: binding; details: for IC50: NAMPT IC50 range class, read-out: IC50; for inhibition at 1 µM: read-out: Percent Inhibition
Method in brief: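 TR-FRET binding assay in which His-tagged human NAMPT with anti-6His-Tb is displaced by compound from a BodiPY ligand, incubated 1 h at rt in the dark. Excitation was at 320 nm, with the 520/486 nm emission ratio read. IC50 was fitted from inhibition relative to DMSO controls.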

[2] = tested on: PC3 cells; experiment: PC3 growth inhibition (Cell-titer glo, 72 hours); assay type: cell-based; details: Homo sapiens, PC-3, PC3 cells, 72 hours, Cell-titer glo, read-out: Percent Inhibition (PC3 growth inhibition); for inhibition at 1 µM: compound concentration 1 μM; for inhibition at 1.667 µM: compound concentration 1.667 μM
Method in brief: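 PC3 cells in RPMI1640 seeded overnight at 37 °C, 5% CO2, then exposed to compound diluted in AIM serum-free medium for 72 h. Viability by CellTiter-Glo luminescence vs DMSO controls; single-concentration % remaining viability (1 μM or 1.667 μM), or GI50/LD50 from curves.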

hNAMPT protein, sequence (P43490 whole entry): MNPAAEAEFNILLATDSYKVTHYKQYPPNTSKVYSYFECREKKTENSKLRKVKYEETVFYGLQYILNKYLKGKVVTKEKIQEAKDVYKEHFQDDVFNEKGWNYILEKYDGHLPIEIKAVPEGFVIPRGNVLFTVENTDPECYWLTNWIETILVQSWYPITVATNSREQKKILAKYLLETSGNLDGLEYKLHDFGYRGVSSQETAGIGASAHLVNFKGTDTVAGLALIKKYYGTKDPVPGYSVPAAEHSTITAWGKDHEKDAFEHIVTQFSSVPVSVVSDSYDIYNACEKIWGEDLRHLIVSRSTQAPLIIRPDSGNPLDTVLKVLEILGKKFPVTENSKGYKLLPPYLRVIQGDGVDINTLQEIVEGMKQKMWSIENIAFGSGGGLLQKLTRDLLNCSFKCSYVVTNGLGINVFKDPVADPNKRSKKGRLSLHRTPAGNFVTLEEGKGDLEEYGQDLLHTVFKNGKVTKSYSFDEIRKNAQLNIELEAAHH

SMILES | IC50 [1] | inhibition at 1 µM ([1]; compound concentration 1 μM) | inhibition at 1 µM [2] | inhibition at 1 µM [1] | inhibition at 1.667 µM [2]
O=C(NCCc1cccnc1)c1ccc2nc(-c3ccc(F)cc3)c(-c3ccc(F)cc3)nc2c1 [Compound I-269, 2,3-bis(4-fluorophenyl)-N-[2-(pyridin-3-yl)ethyl]quinoxaline-6-carboxamide] | 100 to 500 nM | 73% | 0% | – | –
O=C(NCCn1ccnc1)c1ccc2nc(-c3ccc(F)cc3)c(-c3ccc(F)cc3)nc2c1 [Compound I-270, 2,3-bis(4-fluorophenyl)-N-[2-(1H-imidazol-1-yl)ethyl]quinoxaline-6-carboxamide] | 1000 to 2000 nM | 47% | 111% | – | –
O=C(NCCCn1ccnc1)c1ccc2nc(N3CCC(C4CCNCC4)CC3)c(-c3ccccc3)nc2c1 [Compound I-271, 2-(4,4′-Bipiperidin-1-yl)-N-[3-(1H-imidazol-1-yl)propyl]-3-phenylquinoxaline-6-carboxamide] | < 100 nM | – | -2% | 102% | –
O=C(NCCCn1ccnc1)c1ccc2nc(N3CCC(N4CCNC4=O)CC3)c(-c3ccccc3)nc2c1 [Compound I-272, N-[3-(1H-imidazol-1-yl)propyl]-2-[4-(2-oxoimidazolidin-1-yl)piperidin-1-yl]-3-phenylquinoxaline-6-carboxamide] | 100 to 500 nM | 72% | -6% | – | –
O=C(NCCCc1ncc[nH]1)c1ccc2nc(Oc3ccccc3)c(-c3ccc(Cl)cc3)nc2c1 [Compound I-273, 3-(4-Chlorophenyl)-N-[3-(1H-imidazol-2-yl)propyl]-2-phenoxyquinoxaline-6-carboxamide] | < 100 nM | 88% | – | – | 2%
O=C(NCCCn1ccnc1)c1ccc2nc(NC3CCC3)c(-c3ccccc3)nc2c1 [Compound I-274, 2-(cyclobutylamino)-N-[3-(1H-imidazol-1-yl)propyl]-3-phenylquinoxaline-6-carboxamide] | 2000 to 10000 nM | 25% | -5% | – | –
O=C(NCCCn1ccnc1)c1ccc2nc(N3CCC4(CC3)OCCO4)c(-c3ccccc3)nc2c1 [Compound I-275] | < 100 nM | 99% | 0% | – | –
Cn1cnc(CCNC(=O)c2ccc3nc(-c4ccc(F)cc4)c(-c4ccc(F)cc4)nc3c2)c1 [Compound I-276, 2,3-bis(4-fluorophenyl)-N-[2-(1-methyl-1H-imidazol-4-yl)ethyl]quinoxaline-6-carboxamide] | 1000 to 2000 nM | 38% | 90% | – | –
O=C(NCCCc1ncc[nH]1)c1ccc2nc(N3CCC4(CC3)COC4)c(-c3ccc(F)cc3)nc2c1 [Compound I-277, 3-(4-Fluorophenyl)-N-[3-(1H-imidazol-2-yl)propyl]-2-(2-oxa-7-azaspiro[3.5]non-7-yl)quinoxaline-6-carboxamide] | < 100 nM | – | – | 99% | 2%
CCN(CC)c1nc2cc(C(=O)NCCCn3ccnc3)ccc2nc1-c1ccccc1 [Compound I-278, 3-(diethylamino)-N-[3-(1H-imidazol-1-yl)propyl]-2-phenylquinoxaline-6-carboxamide] | 2000 to 10000 nM | 15% | 98% | – | –
CN(CCn1ccnc1)C(=O)c1ccc2nc(-c3ccc(F)cc3)c(-c3ccc(F)cc3)nc2c1 [Compound I-279, 2,3-bis(4-fluorophenyl)-N-[2-(1H-imidazol-1-yl)ethyl]-N-methylquinoxaline-6-carboxamide] | 2000 to 10000 nM | 13% | 89% | – | –
O=C(NCCCn1ccnc1)c1ccc2nc(N3CCC(n4c(=O)[nH]c5ccccc54)CC3)c(-c3ccccc3)nc2c1 [Compound I-280, N-[3-(1H-imidazol-1-yl)propyl]-2-[4-(2-oxo-2,3-dihydro-1H-benzimidazol-1-yl)piperidin-1-yl]-3-phenylquinoxaline-6-carboxamide] | 100 to 500 nM | 83% | -6% | – | –
O=C(NCCCn1ccnc1)c1ccc2nc(-c3ccccc3)c(-c3ccccc3Cl)nc2c1 [Compound I-281, 3-(2-chlorophenyl)-N-[3-(1H-imidazol-1-yl)propyl]-2-phenylquinoxaline-6-carboxamide] | 1000 to 2000 nM | 37% | 6% | – | –
O=C(NCc1cn2cccnc2n1)c1ccc2nc(N3CCC(O)CC3)c(-c3ccc(F)cc3)nc2c1 [Compound I-282, 3-(4-Fluorophenyl)-2-(4-hydroxypiperidin-1-yl)-N-(imidazo[1,2-a]pyrimidin-2-ylmethyl)quinoxaline-6-carboxamide] | < 100 nM | 91% | – | – | 96%
O=C(NCCCn1ccnc1)c1ccc2nc(-c3ccccc3)c(N3CCn4ccnc4C3)nc2c1 [Compound I-283, 3-(5,6-dihydroimidazo[1,2-a]pyrazin-7(8H)-yl)-N-[3-(1H-imidazol-1-yl)propyl]-2-phenylquinoxaline-6-carboxamide] | 2000 to 10000 nM | 12% | 100% | – | –
CC(C)Oc1c2c(nn1C)CCN(C(=O)c1ccc3nc(-c4ccc(F)cc4)c(-c4ccc(F)cc4)nc3c1)C2 [Compound I-284, [2,3-bis(4-fluorophenyl)quinoxalin-6-yl](3-isopropoxy-2-methyl-2,4,6,7-tetrahydro-5H-pyrazolo[4,3-c]pyridin-5-yl)methanone] | 2000 to 10000 nM | 14% | 98% | – | –
O=C(c1ccc2nc(-c3ccc(F)cc3)c(-c3ccc(F)cc3)nc2c1)N1CCc2[nH]nc(O)c2C1 [Compound I-285, [2,3-bis(4-fluorophenyl)quinoxalin-6-yl](3-hydroxy-1,4,6,7-tetrahydro-5H-pyrazolo[4,3-c]pyridin-5-yl)methanone] | 2000 to 10000 nM | 7% | 97% | – | –
NCc1ccc(-c2nc3cc(C(=O)NCCc4cccnc4)ccc3nc2-c2ccccc2)cc1 [Compound I-286, 3-[4-(Aminomethyl)phenyl]-2-phenyl-N-[2-(pyridin-3-yl)ethyl]quinoxaline-6-carboxamide] | 2000 to 10000 nM | – | 4% | 13% | –
O=C(NCCCc1ncc[nH]1)c1ccc2nc(N3CCS(=O)(=O)CC3)c(-c3ccc(F)cc3)nc2c1 [Compound I-287, 2-(1,1-dioxidothiomorpholin-4-yl)-3-(4-fluorophenyl)-N-[3-(1H-imidazol-2-yl)propyl]quinoxaline-6-carboxamide] | < 100 nM | 98% | – | – | 2%
O=C(NCCCc1ncc[nH]1)c1ccc2nc(N3CC4(CCOCC4)C3)c(-c3ccc(F)cc3)nc2c1 [Compound I-288, 3-(4-fluorophenyl)-N-[3-(1H-imidazol-2-yl)propyl]-2-(7-oxa-2-azaspiro[3.5]non-2-yl)quinoxaline-6-carboxamide] | < 100 nM | > 99% | – | – | 2%
O=C(NCCCn1ccnc1)c1ccc2nc(N3CCS(=O)(=O)CC3)c(-c3ccccc3)nc2c1 [Compound I-289, 2-(1,1-dioxidothiomorpholin-4-yl)-N-[3-(1H-imidazol-1-yl)propyl]-3-phenylquinoxaline-6-carboxamide] | 1000 to 2000 nM | 45% | -7% | – | –
